Test system: Utrophin A promoter linked to a luciferase reporter gene (H2K/mdx/Utro A reporter cell line)
Assay: Luciferase reporter assay (murine H2K cells)
Conditions: Mus musculus, H2K mdx

| Structure (SMILES) | activity at 10 µM |
| --- | --- |
| Cc1ccc2nc(-c3ccc(O)cc3)sc2c1 [Example 643, 4-(6-methylbenzo[d]thiazol-2-yl)phenol] | 301 to 400% |
| Nc1ccc2nc(-c3ccc(-c4nc5ccc(N)cc5[nH]4)cc3)[nH]c2c1 [Example 476, 2,2′-(1,4-phenylene)bis(1H-benzo[d]imidazol-6-amine)] | < 200% |
| CCC(C)c1ccc2oc(-c3ccc(N)cc3)nc2c1 (stereo not shown) [Example 609, 4-(5-Sec-butylbenzo[d]oxazol-2-yl)aniline] | 301 to 400% |
| Cc1ccc2nc(-c3ccc(NC(=O)c4ccccc4C(=O)O)cc3)sc2c1 [Example 545, 2-(4-(6-methylbenzo[d]thiazol-2-yl)phenylcarbamoyl)benzoic acid] | < 200% |
| Cc1ccc(-c2nc3cc(N)ccc3o2)cc1Cl [Example 526, 2-(3-chloro-4-methylphenyl)benzo[d]oxazol-5-amine] | 201 to 300% |
| Nc1cc(-c2nc3ccccc3[nH]2)ccc1Cl [Example 653, 5-(1H-benzo[d]imidazol-2-yl)-2-chloroaniline] | 301 to 400% |
| Nc1ccc2oc(-c3ccc(Cl)c(Cl)c3)nc2c1 [Example 480, 2-(3,4-dichlorophenyl)benzo[d]oxazol-5-amine] | 201 to 300% |
